{
  "source": "patent EP0031221B1",
  "about": "“Cyclic peptide nuclei” (ELI LILLY AND COMPANY, priority 1979, dated 1981)",
  "key": {"Candida albicans [1]": {"system": "Candida albicans", "conditions": "characteristics from German Offenlegungschrift 2,628,965 / U.S. Patent 4,173,629; cited from earlier work"}, "Neurospora crassa 846": {"system": "Neurospora crassa 846", "experiment": "Agar-plate disc-diffusion test (zone of inhibition)", "type": "cell-based", "conditions": "methanol suspension 1 mg/ml, 7-mm disc, 24—48 hours at 25—37°C, * = distinct zone with regrowth of organism around disc", "procedure": "(§1) In Table IV activity is measured by the size (diameter in mm) of the observed zone of inhibition of the microorganism produced by the test compound. In Table V activity is measured by the minimal inhibitory concentration (MIC) of the substance (mg/disc) required to inhibit growth of the test organism. Table VI gives the results of the testing in vitro of the p-(n-octyloxy)benzoyl derivative of A-30912A nucleus against five strains of Candida albicans by the agar-dilution method. In Table VI activity is measured by the minimal inhibitory concentration (MIC) of the substance (mg/ml) required to inhibit the test organism."}, "[2]": {"system": "Saccharomyces pastorianus X—52", "experiment": "Agar-plate disc-diffusion test (zone of inhibition)", "type": "cell-based", "conditions": "methanol suspension 1 mg/ml, 7-mm disc, incubation 24—48 hours at 25—37°C", "procedure": "as §1"}, "[3]": {"system": "Trichophyton mentagrophytes A—23", "experiment": "Agar-plate disc-diffusion test (zone of inhibition)", "type": "cell-based", "conditions": "read-out: Size of Zone of Inhibition (mm)", "procedure": "as §1"}, "Candida albicans A-26": {"system": "Candida albicans A-26", "experiment": "Therapeutic activity against systemic C. albicans infection in mice", "type": "in vivo", "procedure": "The results of in vivo tests to evaluate the effectiveness of the derivatives against an infection caused by Candida albicans A-26 in mice are given in Table VII. In these tests activity is measured by the ED50 value (the dose in mg/kg required to cure 50% of the test animals). Where an ED50 value was not obtained, activity is indicated by the lowest dose at which a significant antifungal effect is observed. In these tests, groups of male albino mice (specific pathogen free), weighing 18 to 20 grams, are infected intravenously with Candida albicans A-26. The animals are X-irradiated 24 hours prior to infection at about 50 roentgens per minute for 8 minutes (400 total dose) to reduce immune responses to the infecting organism. At 0, 4, and 24 hours post infection each group of mice is given graded doses subcutaneously of the test compound as a suspension in 33% polyethylene glycol(PEG)-water. The day of death for each animal is recorded."}, "in vivo": {"experiment": "in vivo", "conditions": "mouse, po, 416 mg/kg", "protocol": "(§2) At time intervals, blood samples are taken from the orbital sinus and are assayed for antibiotic activity as follows: A 7-mm disc containing 20 ml of whole blood is placed on agar seeded with Aspergillus montevidensis A35137. After 40 hours incubation at 30°C, zones of inhibition from the blood samples are compared to a standard obtained from the test compound, and the amount of compound in the blood sample is calculated."}, "Candida albicans [4]": {"system": "Candida albicans", "experiment": "Agar-dilution MIC against five Candida albicans strains", "type": "cell-based", "conditions": "agar-dilution method", "procedure": "as §1"}, "[5]": {"experiment": "Blood levels after oral administration in mice (bioassay vs. Aspergillus montevidensis)", "conditions": "mouse, 416 mg/kg", "protocol": "as §2"}, "physchem": {"experiment": "physchem", "conditions": "66% aqueous dimethylformamide, pH 7.32"}, "[6]": {"conditions": "Neurospora crassa 846, read-out: Size of Zone of Inhibition (mm)"}, "[7]": {"conditions": "Saccharomyces pastorianus X—52, read-out: Size of Zone of Inhibition (mm)"}, "[8]": {"conditions": "Candida albicans, A26, light or radiation study, sc, X-irradiated mice infected i.v. with C. albicans A-26, subcutaneous doses at 0, 4 and 24 hours, lowest dose with significant antifungal effect (survival time), read-out: Lowest Active Dose"}, "[9]": {"conditions": "Candida albicans, A26, light or radiation study, sc, X-irradiated mice infected i.v. with C. albicans A-26, subcutaneous doses at 0, 4 and 24 hours post infection, suspension in PEG-water, dose curing 50% of animals, read-out: ED50"}},
  "note": "Read-outs that look alike come from different tables or passages of the source. Starred links: 1 amine or outer side, 2 acyl side, 3 side chain; linkers in the order of their positions; H or OH if unused. Positions of bridges follow the written chain, without caps; N, C: chain ends. Non-standard residues stand in square brackets, D forms with d. Residues, ends and D or L forms follow the SMILES beside them. *: point of attachment. Orn(4R-OH,5R-OH) = O=C([C@H](C[C@@H](O)[C@@H](O)N[*:3])N[*:1])[*:2]; hTyr(3S-OH,4S-OH) = N[C@H](C(=O)O)[C@H](O)[C@@H](O)c1ccc(O)cc1; Pro(3S-OH,4S-Me) = C[C@H]1CN[C@H](C(=O)O)[C@H]1O; Benzoyl(4-octyloxy) = CCCCCCCCOc1ccc(C(=O)*)cc1; Gln(3R-OH) = NC(=O)C[C@@H](O)[C@H](N)C(=O)O; Hyp = O=C(O)[C@@H]1C[C@@H](O)CN1; Tridecanoyl = CCCCCCCCCCCCC(=O)*; Myristoyl = CCCCCCCCCCCCCC(=O)*; Lauroyl = CCCCCCCCCCCC(=O)*; 4Abz = Nc1ccc(C(=O)O)cc1",
  "data": [
    {"smiles": "CCCCCCCCCCCCCC(=O)N[C@H]1C[C@@H](O)[C@@H](O)NC(=O)[C@@H]2[C@@H](O)[C@@H](C)CN2C(=O)[C@H]([C@H](O)CC(N)=O)NC(=O)[C@H]([C@H](O)[C@@H](O)c2ccc(O)cc2)NC(=O)[C@@H]2C[C@@H](O)CN2C(=O)[C@H]([C@@H](C)O)NC1=O", "note": "[S 31794/F-1] (Myristoyl-[Orn(4R-OH,5R-OH)]T[Hyp][hTyr(3S-OH,4S-OH)][Gln(3R-OH)][Pro(3S-OH,4S-Me)]; lactam 1-C)", "values": [
      {"measurement": "antifungal activity", "setting": "Candida albicans [1]", "value": "has antifungal activity, especially against Candida albicans"}
    ]},
    {"smiles": "CCCCCCCCCCCCC(=O)N[C@H]1C[C@@H](O)[C@@H](O)NC(=O)[C@@H]2[C@@H](O)[C@@H](C)CN2C(=O)[C@H]([C@@H](C)O)NC(=O)[C@H]([C@H](O)[C@@H](O)c2ccc(O)cc2)NC(=O)[C@@H]2C[C@@H](O)CN2C(=O)[C@H]([C@@H](C)O)NC1=O", "note": "[Reference Example 1] (Tridecanoyl-[Orn(4R-OH,5R-OH)]T[Hyp][hTyr(3S-OH,4S-OH)]T[Pro(3S-OH,4S-Me)]; lactam 1-C)", "values": [
      {"measurement": "zone of inhibition at 1000 µg/mL", "setting": "Neurospora crassa 846; [6]", "value": 32, "unit": "mm"},
      {"measurement": "zone of inhibition at 1000 µg/mL", "setting": "[2]; [7]", "value": 21, "unit": "mm"},
      {"measurement": "zone of inhibition at 1000 µg/mL", "setting": "[3]; Trichophyton mentagrophytes A—23, methanol suspension 1 mg/ml, 7-mm disc, 24—48 hours at 25—37°C, * = distinct zone with regrowth of organism around disc", "value": 60, "unit": "mm"},
      {"measurement": "minimal effective dose", "setting": "Candida albicans A-26; [8]", "value": 20, "unit": "mg/kg"},
      {"measurement": "ED50", "setting": "Candida albicans A-26; [9]", "value": 34, "unit": "mg/kg"},
      {"measurement": "concentration at 4 h", "setting": "in vivo", "value": 100, "unit": "µg/mL"}
    ]},
    {"smiles": "CCCCCCCCOc1ccc(C(=O)N[C@H]2C[C@@H](O)[C@@H](O)NC(=O)[C@@H]3[C@@H](O)[C@@H](C)CN3C(=O)[C@H]([C@@H](C)O)NC(=O)[C@H]([C@H](O)[C@@H](O)c3ccc(O)cc3)NC(=O)[C@@H]3C[C@@H](O)CN3C(=O)[C@H]([C@@H](C)O)NC2=O)cc1", "note": "[Reference Example 13, p-(n-octyloxy)benzoyl derivative of A-30912A nucleus] ({Benzoyl(4-octyloxy)}-[Orn(4R-OH,5R-OH)]T[Hyp][hTyr(3S-OH,4S-OH)]T[Pro(3S-OH,4S-Me)]; lactam 1-C)", "values": [
      {"measurement": "zone of inhibition at 1000 µg/mL", "setting": "Neurospora crassa 846; [6]", "value": 23, "unit": "mm"},
      {"measurement": "zone of inhibition at 1000 µg/mL", "setting": "[2]; [7]", "value": 18, "unit": "mm"},
      {"measurement": "MIC", "setting": "Candida albicans [4]; Candida albicans strain A26, read-out: MIC", "value": 0.312, "unit": "µg/mL"},
      {"measurement": "MIC", "setting": "Candida albicans [4]; Candida albicans strain SBH 16", "value": 0.312, "unit": "µg/mL"},
      {"measurement": "MIC", "setting": "Candida albicans [4]; Candida albicans strain SBH 28", "value": 0.312, "unit": "µg/mL"},
      {"measurement": "MIC", "setting": "Candida albicans [4]; Candida albicans strain SBH 29", "value": 0.312, "unit": "µg/mL"},
      {"measurement": "MIC", "setting": "Candida albicans [4]; Candida albicans strain SBH 31", "value": 0.312, "unit": "µg/mL"},
      {"measurement": "minimal effective dose", "setting": "Candida albicans A-26; [8]", "value": 10, "unit": "mg/kg"},
      {"measurement": "ED50", "setting": "Candida albicans A-26; [9]", "value": 13, "unit": "mg/kg"},
      {"measurement": "ED50", "setting": "Candida albicans A-26; X-irradiated mice infected i.v. with C. albicans A-26, subcutaneous doses at 0, 4 and 24 hours post infection, suspension in PEG-water, dose curing 50% of animals", "value": 22.2, "unit": "mg/kg"},
      {"measurement": "Lowest Active Dose", "setting": "Candida albicans A-26; X-irradiated mice infected i.v. with C. albicans A-26, subcutaneous doses at 0, 4 and 24 hours, lowest dose with significant antifungal effect (survival time)", "value": ">12.5", "unit": "mg/kg"},
      {"measurement": "concentration at 4 h", "setting": "[5]", "value": 23000, "unit": "µg/mL"}
    ]},
    {"smiles": "C[C@@H](O)[C@@H]1NC(=O)[C@H]([C@H](O)[C@@H](O)c2ccc(O)cc2)NC(=O)[C@@H]2C[C@@H](O)CN2C(=O)[C@H]([C@@H](C)O)NC(=O)[C@@H](N)C[C@@H](O)[C@@H](O)NC(=O)[C@@H]2[C@@H](O)[C@@H](C)CN2C1=O", "note": "[A-30912A nucleus] (H-[Orn(4R-OH,5R-OH)]T[Hyp][hTyr(3S-OH,4S-OH)]T[Pro(3S-OH,4S-Me)]; lactam 1-C)", "values": [
      {"measurement": "pKa", "setting": "physchem", "value": "~7.35"}
    ]},
    {"smiles": "CCCCCCCCCCCC(=O)Nc1ccc(C(=O)N[C@H]2C[C@@H](O)[C@@H](O)NC(=O)[C@@H]3[C@@H](O)[C@@H](C)CN3C(=O)[C@H]([C@@H](C)O)NC(=O)[C@H]([C@H](O)[C@@H](O)c3ccc(O)cc3)NC(=O)[C@@H]3C[C@@H](O)CN3C(=O)[C@H]([C@@H](C)O)NC2=O)cc1", "note": "[Reference Example 7, N-(n-dodecanoyl)-p-aminobenzoyl derivative of A-30912A nucleus] ({Lauroyl-4Abz}-[Orn(4R-OH,5R-OH)]T[Hyp][hTyr(3S-OH,4S-OH)]T[Pro(3S-OH,4S-Me)]; lactam 1-C)", "values": [
      {"measurement": "zone of inhibition at 1000 µg/mL", "setting": "Neurospora crassa 846; Neurospora crassa, 846, 48 h, read-out: Size of Zone of Inhibition (mm), Neurospora crassa 846", "value": 33, "unit": "mm"},
      {"measurement": "zone of inhibition at 1000 µg/mL", "setting": "[2]; Saccharomyces pastorianus, 48 h, read-out: Size of Zone of Inhibition (mm), Saccharomyces pastorianus X—52", "value": 21, "unit": "mm"},
      {"measurement": "zone of inhibition at 1000 µg/mL", "setting": "[3]; Trichophyton mentagrophytes, 48 h", "value": 55, "unit": "mm"},
      {"measurement": "ED50", "setting": "Candida albicans A-26; Candida albicans, A26, light or radiation study, sc", "value": 15, "unit": "mg/kg"},
      {"measurement": "minimal effective dose", "setting": "Candida albicans A-26; Candida albicans, A26, light or radiation study, sc, read-out: Lowest Active Dose (mg/kg), X-irradiated mice infected i.v. with C. albicans A-26, subcutaneous doses at 0, 4 and 24 hours, lowest dose with significant antifungal effect (survival time)", "value": 10, "unit": "mg/kg"},
      {"measurement": "concentration at 4 h", "setting": "[5]", "value": 830, "unit": "µg/mL"}
    ]}
  ]
}
